“Also recorded” adds a separate entry of the source.
What was measured:
Type in all cases: physicochemical
[1] = Stability in humidity chamber 40° C./75% R.H. (XRPD, HPLC); conditions: 2 weeks
Method: After 2 days, the solids were isolated by filtration under vacuum at RT to be characterised by XRPD analysis. Each new crystalline solid phase detected was characterised by ^1H NMR and TGA-DSC analyses in order to determine if salt formation had occurred and whether the material was a solvate. At this stage, each salt identified was then analysed by HPLC to determine the chemical purity prior to being stored in the humidity chamber (40° C./75% R.H.) to assess its stability.

[2] = Gravimetric Vapour Sorption (GVS) at 25° C.
Method: Sorption isotherms were obtained using a SMS DVS Intrinsic moisture sorption analyser, controlled by SMS Analysis Suite software. The sample temperature was maintained at 25° C. by the instrument controls. The humidity was controlled by mixing streams of dry and wet nitrogen, with a total flow rate of 200 ml.min^−1. The relative humidity was measured by a calibrated Rotronic probe (dynamic range of 1.0-100% RH), located near the sample. The weight change, (mass relaxation) of the sample as a function of % RH was constantly monitored by the microbalance (accuracy ±0.005 mg). Typically 5-20 mg of sample was placed in a tared mesh stainless steel basket under ambient conditions. The sample was loaded and unloaded at 40% RH and 25° C. (typical room conditions). A moisture sorption isotherm was performed as outlined below (2 scans giving 1 complete cycle). The standard isotherm was performed at 25° C. at 10% RH intervals over a 0.5-90% RH range. The sample was recovered after completion of the isotherm and re-analysed by XRPD.

[3] = Polymorph screen: maturation in solvents, XRPD; conditions: for XPRD Characterisation after maturation: 3 days
Method: An initial polymorphism screen was performed for the fumarate and citrate salts using 10 common class II and III organic solvents (with and without addition of water), plus pure water. […] The samples were subjected to a series of heat/cool cycles (room temp […], 8 hour cycles). After 3 days, the samples were filtered and the solids were characterised by XRPD analysis.

[4] = Solid state stability at ambient conditions
[5] = Stability study: rate of hydration of anhydrous polymorph in methocel/Tween 80 test medium, XRPD; conditions: for Time points where transformation was observed: no seeds
Method: Test medium was prepared by dissolving methocel (4 g) in water (196 mL) to afford a 2% (w/w) solution. After stirring for 12 hours to ensure a homogenous solution is obtained, Tween 80 (800 mg) and water (600 mL) was added and the mixture stirred for an additional 12 hours to homogenise.
(§1) Test medium (30 mL) was added and each sample was maturated at the indicated temperature and condition (−20° C., 4° C., room temperature with stirring and room temperature without stirring). […] The samples were monitored over time by XRPD to determine the rate of hydration of the anhydrous polymorph.
as §1, with “(5” for “(30”

[6] = Thermodynamic aqueous solubility; conditions: for solubility at 24 h: 25 °C, thermodynamic from solid; for solubility at 24 h / aqueous solubility: water; for final pH: pH of the aqueous suspension after equilibration; for aqueous solubility: 25° C., 24 hours
Method: Aqueous solubility was determined by suspending sufficient compound in water to give a maximum final concentration of 210 mg·ml^−1 of the parent free-form of the compound. The suspension was equilibrated at 25° C. for 24 hours then the pH was measured. The suspension was then filtered through a glass fibre C filter into a 96 well plate. The filtrate was then diluted by a factor of 101. Quantitation was by HPLC with reference to a standard solution of approximately 0.1 mg·ml^−1. in DMSO. Different volumes of the standard, diluted and undiluted sample solutions were injected. The solubility was calculated using the peak areas determined by integration of the peak found at the same retention time as the principal peak in the standard injection.
Analysis was performed on an Agilent HP1 100 series system equipped with a diode array detector and using ChemStation software vB.02.01-SR1.

[7] = Acetonitrile, w/ water (5% v/v)
[8] = DCM, w/o water, RT-50° C. cycles
[9] = Ethyl acetate, w/ water (5% v/v)
[10] = nitromethane, w/ water (5% v/v)
[11] = 1 mg/mL, 20-25° C. (under stirring)
[12] = 1 mg/mL, 20-25° C. (without stirring)
[13] = 10 mg/mL, 20-25° C. (under stirring)
[14] = 10 mg/mL, 20-25° C. (without stirring)
[15] = listed as Fumiarate Pattern 2, fumarate

With `CN1CC=CCCOc2cccc(c2)C2=CC=NC(=Nc3cccc(c3)C1)N2.O=S(=O)(O)c1ccccc1` [Besylate Pattern 1, 14-methyl-20-oxa-5,7,14,27-tetraazatetracyclo-[19.3.1.12,6.18,12]heptacosa-1(25),2,4,6,8,10,12(26),16,21,23-decaene besylate] the “XPRD stability after 40° C./75% RH 2 weeks” value ([1]; besylate) was “stable” and the “XPRD stability after 40° C./75% RH 2 weeks” value ([1]; listed as Besylate pattern 1, besylate) was “No change”.
With `CN1CC=CCCOc2cccc(c2)C2=CC=NC(=Nc3cccc(c3)C1)N2.O=C(O)CC(O)(CC(=O)O)C(=O)O` [Citrate Pattern 1, 14-methyl-20-oxa-5,7,14,27-tetraazatetracyclo-[19.3.1.12,6.18,12]heptacosa-1(25),2,4,6,8,10,12(26),16,21,23-decaene citrate] the “changes in the XRPD pattern after the GVS experiment” value (“changes in the XRPD pattern” below) ([2]; citrate) was “no transformation; also recorded: between 0 and 90% relative humidity. No”, the “XPRD Characterisation after maturation” value ([3]; Acetone, w/ water (5% v/v)) was “Citrate Pattern 1” and the “XPRD Characterisation after maturation” value ([3]; Acetone, w/o water) was “Citrate Pattern 1”. For the same molecule, the “XPRD Characterisation after maturation” value [3, 7] was “Citrate Pattern 2”, the “XPRD Characterisation after maturation” value ([3]; Acetonitrile, w/o water) was “Citrate Pattern 1” and the “XPRD Characterisation after maturation” value ([3]; DCM, w/ water (5% v/v)) was “Citrate Pattern 3”. The “XPRD Characterisation after maturation” value [3, 8] was “Citrate Pattern 1”, the “XPRD Characterisation after maturation” value ([3]; EtOH, w/ water (5% v/v)) was “Citrate Pattern 1” and the “XPRD Characterisation after maturation” value ([3]; EtOH, w/o water) was “Citrate Pattern 1”. For the same molecule, the “XPRD Characterisation after maturation” value [3, 9] was “Citrate Pattern 2”, the “XPRD Characterisation after maturation” value ([3]; Ethyl acetate, w/o water) was “Citrate Pattern 1” and the “XPRD Characterisation after maturation” value ([3]; IPA, w/ water (5% v/v)) was “Citrate Pattern 1”. The “XPRD Characterisation after maturation” value ([3]; IPA, w/o water) was “Citrate Pattern 1”, the “XPRD Characterisation after maturation” value ([3]; TBME, w/ water (5% v/v)) was “Citrate Pattern 2” and the “XPRD Characterisation after maturation” value ([3]; TBME, w/o water) was “Citrate Pattern 1”. The “XPRD Characterisation after maturation” value ([3]; THF, w/ water (5% v/v)) was “Citrate Pattern 2”, the “XPRD Characterisation after maturation” value ([3]; THF, w/o water) was “Citrate Pattern 1” and the “XPRD Characterisation after maturation” value ([3]; Toluene, w/ water (5% v/v)) was “Citrate Pattern 2”. The “XPRD Characterisation after maturation” value ([3]; Toluene, w/o water) was “Citrate Pattern 1”, the “transformation after 3 days of maturation in dried solvents” value [3] was “No transformation” and the “XPRD Characterisation after maturation” value [3, 10] was “Citrate Pattern 2”. The “XPRD Characterisation after maturation” value ([3]; nitromethane, w/o water) was “Citrate Pattern 1”, the “XPRD Characterisation after maturation” value ([3]; pure water) was “Citrate Pattern 2” and the “stability in the solid state” value [4] was “stable”. The “XPRD stability after 40° C./75% RH 2 weeks” value ([1]; citrate) was “not sensitive to humidity; also recorded: no transformation; also recorded: crystallinity, and no change was observed after”, the “XPRD stability after 40° C./75% RH 2 weeks” value ([1]; listed as Citrate pattern 1, citrate) was “No change” and the kinetics of hydration ([5]; comparison of citrate and fumarate salts) was “slower than for the fumarate salt”. The “Time points where transformation was observed” value ([5]; 1 mg/mL, 4° C.) was “No”, the “Time points where transformation was observed” value [5, 11] was 120 h and the “Time points where transformation was observed” value [5, 12] was “Clear Solution”. For the same molecule, the “Time points where transformation was observed” value ([5]; 1 mg/mL, −20° C.) was “No”, the “Time points where transformation was observed” value ([5]; 10 mg/mL, 4° C.) was “No” and the “Time points where transformation was observed” value [5, 13] was 48 h. For the same molecule, the “Time points where transformation was observed” value [5, 14] was “No conversion”, the “Time points where transformation was observed” value ([5]; 10 mg/mL, −20° C.) was “No” and the solubility at 24 h [6] was 160 µg/mL. For the same molecule, the “final pH” value [6] was 3.94 and the aqueous solubility [6] was 0.16 mg/mL.
With `CN1CC=CCCOc2cccc(c2)C2=CC=NC(=Nc3cccc(c3)C1)N2.O=C(O)/C=C/C(=O)O` [Fumarate Pattern 1, 14-methyl-20-oxa-5,7,14,27-tetraazatetracyclo-[19.3.1.12,6.18,12]heptacosa-1(25),2,4,6,8,10,12(26),16,21,23-decaene fumarate] the “XPRD stability after 40° C./75% RH 2 weeks” value ([1]; listed as Fumarate pattern 1, fumarate) was “No change”.
For `CN1CC=CCCOc2cccc(c2)C2=CC=NC(=Nc3cccc(c3)C1)N2.O=C(O)/C=C/C(=O)O` [Fumarate Pattern 2, 14-methyl-20-oxa-5,7,14,27-tetraazatetracyclo-[19.3.1.12,6.18,12]heptacosa-1(25),2,4,6,8,10,12(26),16,21,23-decaene fumarate], the “changes in the XRPD pattern” value ([2]; fumarate) was “no transformation”, the “changes in the XRPD pattern” value [2, 15] was “between 0 and 90% relative humidity. No” and the “XPRD Characterisation after maturation” value ([3]; Acetone, w/ water (5% v/v)) was “Fumarate Pattern 2”. For the same molecule, the “XPRD Characterisation after maturation” value ([3]; Acetone, w/o water) was “Fumarate Pattern 2”, the “XPRD Characterisation after maturation” value [3, 7] was “Fumarate Pattern 2” and the “XPRD Characterisation after maturation” value ([3]; Acetonitrile, w/o water) was “Fumarate Pattern 2”. The “XPRD Characterisation after maturation” value ([3]; DCM, w/ water (5% v/v)) was “Fumarate Pattern 2”, the “XPRD Characterisation after maturation” value [3, 8] was “Fumarate Pattern 2” and the “XPRD Characterisation after maturation” value ([3]; EtOH, w/ water (5% v/v)) was “Fumarate Pattern 2”. For the same molecule, the “XPRD Characterisation after maturation” value ([3]; EtOH, w/o water) was “Fumarate Pattern 2”, the “XPRD Characterisation after maturation” value [3, 9] was “Fumarate Pattern 1” and the “XPRD Characterisation after maturation” value ([3]; Ethyl acetate, w/o water) was “Fumarate Pattern 2”. For the same molecule, the “XPRD Characterisation after maturation” value ([3]; IPA, w/ water (5% v/v)) was “Fumarate Pattern 2”, the “XPRD Characterisation after maturation” value ([3]; IPA, w/o water) was “Fumarate Pattern 2” and the “XPRD Characterisation after maturation” value ([3]; TBME, w/ water (5% v/v)) was “Fumarate Pattern 1”. For the same molecule, the “XPRD Characterisation after maturation” value ([3]; TBME, w/o water) was “Fumarate Pattern 2”, the “XPRD Characterisation after maturation” value ([3]; THF, w/ water (5% v/v)) was “Fumarate Pattern 2” and the “XPRD Characterisation after maturation” value ([3]; THF, w/o water) was “Fumarate Pattern 2”. The “XPRD Characterisation after maturation” value ([3]; Toluene, w/ water (5% v/v)) was “Fumarate Pattern 1”, the “XPRD Characterisation after maturation” value ([3]; Toluene, w/o water) was “Fumarate Pattern 2” and the “transformation after 3 days of maturation in dried solvents” value [3] was “No transformation”. The “XPRD Characterisation after maturation” value [3, 10] was “Fumarate Pattern 2”, the “XPRD Characterisation after maturation” value ([3]; nitromethane, w/o water) was “Fumarate Pattern 2” and the “XPRD Characterisation after maturation” value ([3]; pure water) was “Fumarate Pattern 1”. The “stability in the solid state” value [4] was “stable”, the “XPRD stability after 40° C./75% RH 2 weeks” value ([1]; fumarate) was “not sensitive to humidity” and the “XPRD stability after 40° C./75% RH 2 weeks” value ([1]; listed as Fumarate pattern 2, fumarate) was “no transformation”. The “XPRD stability after 40° C./75% RH 2 weeks” value ([1]; listed as Fumareate pattern 2, fumarate) was “No change”, the “XPRD stability after 40° C./75% RH 2 weeks” value [1, 15] was “crystallinity, and no change was observed after” and the “Time points where transformation was observed” value ([5]; 1 mg/mL, 4° C.) was 120 h. The “Time points where transformation was observed” value [5, 11] was 24 h, the “Time points where transformation was observed” value [5, 12] was 48 h and the “Time points where transformation was observed” value ([5]; 1 mg/mL, −20° C.) was 120 h. For the same molecule, the “Time points where transformation was observed” value ([5]; 10 mg/mL, 4° C.) was “No”, the “Time points where transformation was observed” value [5, 13] was 48 h and the “Time points where transformation was observed” value [5, 14] was 120 h. For the same molecule, the “Time points where transformation was observed” value ([5]; 10 mg/mL, −20° C.) was “No”, the solubility at 24 h [6] was 29 µg/mL and the “final pH” value [6] was 3.80. For the same molecule, the aqueous solubility [6] was 0.029 mg/mL.

— patent publication US9120815B2, “Solid state forms of macrocyclic kinase inhibitors” (Tragara Pharmaceuticals, Inc., priority 2010, dated 2015)
